18 compounds from patent US11578013B2, “Nitrification inhibitors” (Lincoln University, priority 2020, dated 2023) can be followed below.

The subject of test [1] is nitrification in the soil. The experiment in a line: Laboratory soil incubation, Templeton sandy loam with synthetic cow urine, nitrate-N. The settings on record: for nitrate-N concentration in the soil compared with urine alone or urine+DMSO / reducing the nitrification rate compared with DCD: day 30; for reducing the nitrification rate compared with DCD: compound at 2 kg/ha vs DCD at 10 kg/ha; for % reduction by NI (nitrate-N): vs urine alone, 30 days; for Nitrate-N: 30 days of incubation. How it is done: A Templeton sandy loam was used in this experiment. 500 g of soil (dry weight basis) was packed into a pottle. 50 mL of synthetic cow urine with an N concentration of 7 g N/L (comprising about 87% urea-N and 13% glycine-N) was applied to the soil (equivalent to 700 kg N/ha on weight basis, assuming bulk density of 1 g/cm^3 in the top 10 cm of soil). The 700 kg N/ha application was used to simulate the urine-N application rate under a typical dairy cow urine patch in a grazed pasture.
Control treatments also added to soil were: • urine alone (50 mL); • DMSO (equivalent to 0.9 mL/500 g soil)+urine (50 mL) to determine the effect of DMSO on nitrification rate; • water alone (50 mL) (simulating areas of the soil where no urine was deposited).
Pottles were covered with lids with breathing holes to allow for gas exchange during incubation. Pottles were incubated at 12° C. Soil moisture content was maintained at field capacity by adjusting on weight basis twice a week.
Soil samples were collected and were then thoroughly mixed and subsamples were extracted in a potassium chloride solution and analysed for mineral-N. Soil moisture content was also determined. Samples were taken at 30 days after the start of incubation. […]

Another test deals with nitrification. Kind of test: Table 1 summary: compounds found to work or not work as nitrification inhibitors, Inhib(%). The arrangement: concentration or dose not given beside the values. The settings on record: test and rate not given. The protocol:
The phenotypic screening involved assessing the nitrification inhibition potency of the selected 5000 compounds against a key ammonia oxidizing bacterium responsible for ammonia oxidation in the soil, Nitrosomonas europaea, in 96-well microtiter plates. N. europaea cells were grown in the presence of an ammonium source, and the potential of putative nitrification inhibitors to inhibit the production of nitrite (NO2) was measured relative to untreated cells.
A summary of selected compounds initially found to either work or not work as nitrification inhibitors is detailed in Table 1 below.

For test [2], the system named is N2O emissions in the soil. Kind of test: Field study of nitrous oxide emissions, static gas chamber method, urine-treated pasture soil. To be noted: for nitrous oxide reductions compared with DCD: sprayed onto urine-treated pasture soil. The protocol: (§1) This study was conducted on the Lincoln University Research Dairy Farm, and the soil was a Templeton sandy loam with established perennial ryegrass (Lolium perenne) and white clover (Trifolium repens.) pasture. Metal rings (500 mm diameter and 200 mm height) were inserted into the ground. A water trough sitting on top of the metal rings allowed the placement of static chambers sitting on top of the water trough to provide a gas-tight seal to allow N2O gas sampling.
Synthetic urine with a nitrogen concentration of 7 g N/L was applied to the soil plots confined within the metal rings at the equivalent rate of 700 kg N/ha. […] The plots were irrigated with irrigation water in accordance with local dairy farming practice.
(§2) The gas chamber (500 mm diameter and 120 mm height) was constructed of a metal cylinder insulated with 2.5 cm thick polystyrene foam to avoid heating of the atmosphere in the chamber during sampling. During periods of N2O measurement, the edge of the chamber was placed inside the small water trough which was mounted around the top of each metal ring for gas sampling. At each sampling time, the chamber was placed on top of the soil ring for a total of 40 minutes, and 3 samples, 20 minutes apart, were taken using a syringe through a rubber septum on top of the gas chamber. Samples were taken twice weekly. Each sampling was carried out during the middle of the day between 12:00 h to 14:00 h (Di et al., 2007). The N2O concentration in the samples was analysed using a gas chromatograph (SRI8610C with an Electron Capture Detector (ECD) (SRI Instruments, USA) linked to a Gilson 222XL autosampler (Gilson, France)
as §1, with “To determine the effect of treating the soil with 2-ethynyl-5-methoxypyridine on nitrous oxide emissions under field soil conditions, a field study was conducted using the static gas chamber method. This” for “This”
Synthetic urine with a nitrogen concentration of 7 g N/L was applied to the soil plots confined within the metal rings at the equivalent rate of 700 kg N/ha. 196.25 mg or 39.2 mg of 2-ethynyl-5-methoxypyridine were dissolved in 2 mL DMSO, mixed with 1000 mL of water, and then sprayed on to the mini-plots at the rates of 196.25 mg/plot and 39.2 mg/plot, equivalent to 10 kg/ha and 2 kg/ha, respectively. The plots were irrigated with irrigation water in accordance with local dairy farming practice.
as §2, with “France).” for “France)”
To determine the effect of treating the soil with 3-ethynylpyridine 1-oxide on nitrous oxide emissions under field soil conditions, a field study was conducted using the static gas chamber method. […]

Structures are written as SMILES. Where a name gives a salt, the structure may show the parent alone.

For the compound `C#Cc1ccc(C#C)cc1` [1,4-diethynylbenzene], the “nitrate-N concentration in the soil compared with urine alone or urine+DMSO” value in test [1] (2 kg/ha) is given as “significantly lower nitrate-N concentrations”. The “reducing the nitrification rate compared with DCD” value (from here on “reducing the nitrification rate”) in test [1] is given as “more effective than DCD”. The “Inhib(%)” value in the test with nitrification is reported as 100%.

In the case of `C#CC1CCN(C(C)=O)CC1` [1-(4-ethynyl-1-piperidinyl)ethanone, reference compound], the “Inhib(%)” value with nitrification was 0%.

As for `C#Cc1ccc(OCC)cc1` [1-ethoxy-4-ethynylbenzene], in test [1] (2 kg/ha), the “nitrate-N concentration in the soil compared with urine alone or urine+DMSO” value was “significantly lower nitrate-N concentrations”. Besides, the “reducing the nitrification rate” value in test [1] is “more effective than DCD”. The “Inhib(%)” value in the test with nitrification turned out to be 100%.

As for `C#Cc1ccc(OC(F)(F)F)cc1` [1-ethynyl-4-(trifluoromethoxy)benzene, reference compound], the “Inhib(%)” value with nitrification amounted to 8%.

On to `C#Cc1ccc(OCCCCC)cc1` [1-ethynyl-4-pentoxybenzene, reference compound], for which the “Inhib(%)” value in the test with nitrification is 2%.

With `C#Cc1ccc(C#C)nc1` [2,5-diethynylpyridine], the “nitrate-N concentration in the soil compared with urine alone or urine+DMSO” value in test [1] (2 kg/ha) is reported as “lower nitrate-N concentrations”. Moreover, the “Inhib(%)” value in the test on nitrification came out at 100%.

As for `C#Cc1cnc(C#C)nc1` [2,5-diethynylpyrimidine, reference compound], the “Inhib(%)” value in the test with nitrification came out at 60%.

Regarding `C#Cc1ncccn1` [2-Ethynyl 1,3 Diazine, 2-Ethynylpyrimidine], in test [2] (2 kg/ha, vs urine alone), the “% reduction by NI (N2O emissions)” value is 91%. The “nitrous oxide reductions compared with DCD” value (“nitrous oxide reductions” for short) in test [2] is “greater than that by DCD”. Besides, the N2O emissions in test [2] (urine + inhibitor at 2 kg/ha) was found to be 1.2 kg N2O—N/ha; in test [2] (urine + inhibitor at 10 kg/ha) it was 0.53 kg N2O—N/ha. The “% reduction by NI (nitrate-N)” value in test [1] (0.5 kg/ha) is on record as 96%; in test [1] (1 kg/ha) it was 98%; in test [1] (2 kg/ha), 84%. In addition, the “reducing the nitrification rate” value in test [1] was “more effective than DCD”. The Nitrate-N in test [1] (urine + inhibitor at 0.5 kg/ha) was 17.5 mg N/kg soil; in test [1] (urine + inhibitor at 1 kg/ha), 9.1 mg N/kg soil; in test [1] (urine + inhibitor at 2 kg/ha) it was 31.8 mg N/kg soil. Moreover, the “Inhib(%)” value in the test on nitrification worked out at 94%.

As to `C#Cc1ccc(OC)cn1` [2-ethynyl-5-methoxypyridine], in test [2], the “nitrous oxide reductions” value is on record as “greater than that by DCD”. In addition, the N2O emissions in test [2] (urine + inhibitor at 2 kg/ha) and in test [2] (urine + inhibitor at 10 kg/ha) was 2 kg N2O—N/ha throughout. For the same compound, the “nitrate-N concentration in the soil compared with urine alone or urine+DMSO” value is reported as “lower nitrate-N concentrations” in test [1] (0.5 kg/ha), “lower nitrate-N concentrations” in test [1] (1 kg/ha) and “significantly lower nitrate-N concentrations” in test [1] (2 kg/ha). For the same compound, the “% reduction by NI (nitrate-N)” value in test [1] (0.5 kg/ha) was determined as 93%; in test [1] (1 kg/ha), 97%; in test [1] (2 kg/ha), 78%. Also, the “reducing the nitrification rate” value in test [1] was “more effective than DCD”. The Nitrate-N in test [1] (urine + inhibitor at 0.5 kg/ha) amounted to 28.6 mg N/kg soil; in test [1] (urine + inhibitor at 1 kg/ha) it was 13.8 mg N/kg soil; in test [1] (urine + inhibitor at 2 kg/ha) it was 100 mg N/kg soil. Further, the “Inhib(%)” value in the test on nitrification came to 100%.

In the case of `C#Cc1cnccn1` [2-ethynylpyrazine], the “reducing the nitrification rate” value in test [1] is on record as “more effective than DCD”.

Take `C#Cc1cncnc1` [3-Ethynyl 1,5 Diazine, 5-Ethynylpyrimidine]: in test [2], the “nitrous oxide reductions” value is listed as “greater than that by DCD”. The N2O emissions was 0.89 kg N2O—N/ha in test [2] (urine + inhibitor at 2 kg/ha) and 0.92 kg N2O—N/ha in test [2] (urine + inhibitor at 10 kg/ha). Besides, the “% reduction by NI (nitrate-N)” value is listed as 70% in test [1] (0.5 kg/ha), 97% in test [1] (1 kg/ha) and 84% in test [1] (2 kg/ha). In addition, the “reducing the nitrification rate” value in test [1] is “more effective than DCD”. The Nitrate-N came out at 118.1 mg N/kg soil in test [1] (urine + inhibitor at 0.5 kg/ha), 13.3 mg N/kg soil in test [1] (urine + inhibitor at 1 kg/ha) and 31.6 mg N/kg soil in test [1] (urine + inhibitor at 2 kg/ha). In the test with nitrification, the “Inhib(%)” value amounted to 95%.

Regarding `C#Cc1cccnn1` [3-Ethynylpyridazine], the “nitrate-N concentration in the soil compared with urine alone or urine+DMSO” value is “lower nitrate-N concentrations” in test [1] (0.5 kg/ha), “lower nitrate-N concentrations” in test [1] (1 kg/ha) and “significantly lower nitrate-N concentrations” in test [1] (2 kg/ha). The entries for the “% reduction by NI (nitrate-N)” value in test [1] (0.5 kg/ha), in test [1] (1 kg/ha) and in test [1] (2 kg/ha) were 91%, 98% and 95%, respectively. For the same compound, the “reducing the nitrification rate” value in test [1] is recorded as “more effective than DCD”. Moreover, the Nitrate-N in test [1] (urine + inhibitor at 0.5 kg/ha) was found to be 35.5 mg N/kg soil; in test [1] (urine + inhibitor at 1 kg/ha) it was 10.3 mg N/kg soil; in test [1] (urine + inhibitor at 2 kg/ha), 10.5 mg N/kg soil.

For the compound `C#Cc1ccncn1` [4-Ethynylpyrimidine], the “nitrate-N concentration in the soil compared with urine alone or urine+DMSO” value in test [1] (1 kg/ha) is listed as “lower nitrate-N concentrations”; in test [1] (2 kg/ha) it was “significantly lower nitrate-N concentrations”. Further, the “reducing the nitrification rate” value in test [1] was “more effective than DCD”. Moreover, the “Inhib(%)” value in the test with nitrification is 100%.

For `C#Cc1ccc(O)cc1` [4-ethynylphenol, reference compound], in the test on nitrification, the “Inhib(%)” value was determined as 0%.

Turning to `C#CC1CCNCC1` [4-ethynylpiperidine hydrochloride, reference compound], the “Inhib(%)” value with nitrification is 0%.

Consider `C#Cc1cc[n+](O)cc1` [4-ethynylpyridine 1-oxide, reference compound], for which, in the test with nitrification, the “Inhib(%)” value worked out at 18%.

Regarding `C#Cc1c[nH]c(=O)[nH]c1=O` [5-ethynyl-2,4(1H,3H)-pyrimidinedione, reference compound], the “Inhib(%)” value in the test with nitrification is 0%.

`C#Cc1ccc(OC)nc1` [5-ethynyl-2-methoxypyridine]: in test [1] (2 kg/ha), the “nitrate-N concentration in the soil compared with urine alone or urine+DMSO” value is recorded as “lower nitrate-N concentrations”. For the same compound, the “Inhib(%)” value with nitrification came out at 100%.
